# Source: patent EP0137692A2, “New antibiotic, neocopiamycin A and the production thereof” (Arai, Tadashi, Prof., priority 1983, dated 1985)
# Experiments:
# Solubility = assay type: physicochemical
# Description: (§1) Neocopiamycin A has the following physico-chemical properties. • (1) Color and Appearance: neutral, colorless, hygroscopic powder. • (2) Melting point: 134 - 136°C. […] Neocopiamycin A gives negative reactions to biuret, ninhydrin, Molisch, Fehling, ferric chloride, Liebermann-Burchard, 2,4-dinitrophenylhydrazine reagents, but possitive reactions to Dragendorff, platinic iodide and Sakaguchi reagents. […] [formula] • (12) Chemical structure: • According to spectral data and physicochemical characteristics, the sturcture of neocopiamycin A can be presumed to have the following formula:- [drawing 3] • Neocopiamycin A has the following biological properties. • (13) Antimicrobial Activity • The minimum inhibitory concentration (MIC) of neocopiamycin A against bacteria, yeast and fungi were determined by a serial two-fold agar dilution method. […] The MICs were determined after incubation for 24 hours or 4 days at 37^*C for bacteria, and after incubation 24 hours to 7 days at 37°C for yeasts and fungi, depending on the test strain. • Antimicrobial spectrum of neocopiamycin A is given in Tables 2, 3 and 4 below. […] Antifungal spectra of copiamycin were similarly determined for the comparison purpose. […] [formula] • (14) Acute Toxicity • Acute toxicity of neocopiamycin A was determined with ddY mice weighing 20 to 21 g. […]
# Gram-positive bacteria = test: MIC by serial two-fold agar dilution method (Muller-Hilton agar); assay type: cell-based; conditions: 24 hours or 4 days at 37°C
# Description: as §1
# Gram-negative bacteria = test: as above; assay type: cell-based; conditions: 24 hours or 4 days at 37°C
# Description: as §1
# ddY mice = test: Acute toxicity; assay type: in vivo; conditions: for dose tolerated by all mice for 14 days without any toxic signs: mouse, in vivo
# Description: Neocopiamycin A has the following physico-chemical properties. • (1) Color and Appearance: neutral, colorless, hygroscopic powder. • (2) Melting point: 134 - 136°C. […] Neocopiamycin A gives negative reactions to biuret, ninhydrin, Molisch, Fehling, ferric chloride, Liebermann-Burchard, 2,4-dinitrophenylhydrazine reagents, but possitive reactions to Dragendorff, platinic iodide and Sakaguchi reagents. It also gives pinkish coloration with conc. sulfuric acid, which subsequently turned brown with time. • (8) Ultra violet absorption spectrum: As shown in Fig. 1 of the accompanying drawings. λ^MeOHmax 205 nm (log ε 4.2) • (9) Infrared absorption spectrum: As-shown in Fig. 2 of the accompanying drawing. IR (KBr)(cm^-1) : 3380, 2975, 2925, 1715, 1655, 1595, 1455, 1375, 1240, 1140, 1070, 975, 845. • (10) NMR spectrum: As shown in Fig. 3 of the accompanying drawing. • (11) Rf values of TLC: • A purified sample of neocopiamycin A gives only one spot when chromatographed on thin layer chromatography TLC (Silica gel 60, plate F254) in different solvent systems and bioautographed against Candida albicans or absorption of ultraviolet. The Rf values and solvent systems employed are summarized in Table 1. [formula] • (12) Chemical structure: • According to spectral data and physicochemical characteristics, the sturcture of neocopiamycin A can be presumed to have the following formula:- [drawing 3] • Neocopiamycin A has the following biological properties. • (13) Antimicrobial Activity • The minimum inhibitory concentration (MIC) of neocopiamycin A against bacteria, yeast and fungi were determined by a serial two-fold agar dilution method. The medium used was Muller-Hilton agar for bacteria, and Sabouraud dextrose agar for yeasts and fungi. The antibiotic was dissolved in a small amount of ethanol and diluted with sterilized water to give final agar media containing less than one percent of the organic solvent, which was not a harmful concentration against the organisms tested. The MICs were determined after incubation for 24 hours or 4 days at 37^*C for bacteria, and after incubation 24 hours to 7 days at 37°C for yeasts and fungi, depending on the test strain. • Antimicrobial spectrum of neocopiamycin A is given in Tables 2, 3 and 4 below. […] Furthermore, it should be pointed out that neocopiamycin A inhibits the growth of both the filamentous and yeast- like fungi at the concentrations below 10 µg/ml. […] Antifungal spectra of copiamycin were similarly determined for the comparison purpose. [formula] [formula] • (14) Acute Toxicity • Acute toxicity of neocopiamycin A was determined with ddY mice weighing 20 to 21 g. Neocopiamycin A was finely pulverized and suspended in 15% aqueous ethanol solution for intraveneous, intraperitoneal and oral administrations. […]
# yeasts and fungi = test: MIC by serial two-fold agar dilution method (Sabouraud dextrose agar); assay type: cell-based
# Description: Neocopiamycin A has the following physico-chemical properties. • (1) Color and Appearance: neutral, colorless, hygroscopic powder. • (2) Melting point: 134 - 136°C. […] Neocopiamycin A gives negative reactions to biuret, ninhydrin, Molisch, Fehling, ferric chloride, Liebermann-Burchard, 2,4-dinitrophenylhydrazine reagents, but possitive reactions to Dragendorff, platinic iodide and Sakaguchi reagents. It also gives pinkish coloration with conc. sulfuric acid, which subsequently turned brown with time. • (8) Ultra violet absorption spectrum: As shown in Fig. 1 of the accompanying drawings. λ^MeOHmax 205 nm (log ε 4.2) • (9) Infrared absorption spectrum: As-shown in Fig. 2 of the accompanying drawing. IR (KBr)(cm^-1) : 3380, 2975, 2925, 1715, 1655, 1595, 1455, 1375, 1240, 1140, 1070, 975, 845. • (10) NMR spectrum: As shown in Fig. 3 of the accompanying drawing. • (11) Rf values of TLC: • A purified sample of neocopiamycin A gives only one spot when chromatographed on thin layer chromatography TLC (Silica gel 60, plate F254) in different solvent systems and bioautographed against Candida albicans or absorption of ultraviolet. […] [formula] • (12) Chemical structure: • According to spectral data and physicochemical characteristics, the sturcture of neocopiamycin A can be presumed to have the following formula:- [drawing 3] • Neocopiamycin A has the following biological properties. • (13) Antimicrobial Activity • The minimum inhibitory concentration (MIC) of neocopiamycin A against bacteria, yeast and fungi were determined by a serial two-fold agar dilution method. […] The MICs were determined after incubation for 24 hours or 4 days at 37^*C for bacteria, and after incubation 24 hours to 7 days at 37°C for yeasts and fungi, depending on the test strain. • Antimicrobial spectrum of neocopiamycin A is given in Tables 2, 3 and 4 below. […] Antifungal spectra of copiamycin were similarly determined for the comparison purpose. […] [formula] • (14) Acute Toxicity • Acute toxicity of neocopiamycin A was determined with ddY mice weighing 20 to 21 g. […]
# Trichomonas vaginalis = test: Growth inhibition in thioglycolate medium; assay type: cell-based; set-up: unit not given here; conditions: thioglycolate medium with 0.5% dextrin and 15% bovine serum
structure (smiles),measurement,setting,value
CC(CCC/C=C/CCCN=C(N)N)CC(C)C1OC(=O)C=CC(C)C(O)CC(O)C(C)C(O)CCC(C)C(O)CC2(O)OC(CC(OC(=O)CC(=O)O)CC(O)CC(O)C(C)C(O)/C=C\C1C)CC(O)C2O (stereo not drawn) [neocopiamycin A],Solubility,"Solubility; acetone, dioxane, chloroform, carbon tetrachloride, ethyl acetate, butyl acetate, petroleum ether, benzene, methyl isobutyl ketone and water",sparingly soluble or insoluble
same,Solubility,"Solubility; methanol, ethanol, n-butanol, pyridine, dimethylformamide, glacial acetic acid",soluble
same,antimicrobial activity against Gram-positive bacteria,Gram-positive bacteria,active
same,antimicrobial activity against Gram-negative bacteria,Gram-negative bacteria,inactive
same,toxicity compared with copiamycin,ddY mice; comparison with copiamycin,less toxic than copiamycin
same,dose tolerated by all mice for 14 days without any toxic signs,"ddY mice; ip, 336 h","more than 1,000 mg/kg"
same,dose tolerated by all mice for 14 days without any toxic signs,ddY mice; iv,30
same,dose tolerated by all mice for 14 days without any toxic signs,"ddY mice; po, 336 h","more than 1,000 mg/kg"
same,concentrations inhibiting the growth of both the filamentous and yeast-like fungi,"yeasts and fungi; Sabouraud dextrose agar, incubation 24 hours to 7 days at 37°C",below 10 µg/ml
same,antimicrobial activity compared with copiamycin,"yeasts and fungi; Tables 2, 3 and 4, comparison with copiamycin",much higher antimicrobial activity than copiamycin
same,"antimicrobial activity against fungi, yeasts","yeasts and fungi; wide range of fungi, yeasts, agar dilution",active
same,concentration inhibiting the growth of Trichomonas vaginalis,Trichomonas vaginalis,1.56
